Literature values in patent EP3094315B1, “PHARMACEUTICAL COMPOSITION COMPRISING ARIPIPRAZOLE OR SALT THEREOF” (Pharmathen S.A., priority 2014, dated 2015).
Read-outs that look alike come from different tables or passages of the source.

O=C1CCc2ccc(OCCCCN3CCN(c4cccc(Cl)c4Cl)CC3)cc2N1 [Aripiprazole, 7-{4-[4-(2,3-dichlorophenyl)piperazin-1-yl]butoxy}-3,4-dihydroquinolin-2(1H)-one]
solubility (in N,N-dimethyl formamide): freely soluble
solubility (in dichloromethane): freely soluble
solubility (in water): practically insoluble
